{"source": "patent US11246476B2", "about": "“Method for visualizing tissue with an ICG dye composition during ablation procedures” (CardioFocus, Inc., priority 2014, dated 2022)", "origin": "cited, not measured here", "key": {"[1]": {"settings": "after injection into the patient's arm (e.g., through an IV)"}, "[2]": {"settings": "in vivo"}}, "data": [{"smiles": "CC1(C)C(/C=C/C=C/C=C/C=C2\\N(CCCCS(=O)(=O)[O-])c3ccc4ccccc4c3C2(C)C)=[N+](CCCCS(=O)(=O)[O-])c2ccc3ccccc3c21.[Na+]", "note": "[ICG, Indocyanine green]", "values": [{"measurement": "binding to plasma proteins", "setting": "plasma proteins", "value": "binds tightly to plasma proteins"}, {"measurement": "time to travel through the bloodstream to the target tissue", "setting": "[1]", "value": "less than 1 minute"}, {"measurement": "route of removal from circulation", "setting": "[2]", "value": "removed from circulation exclusively by the liver to bile juice"}]}]}
